# From patent US20060264460A1 (Wyeth, priority 2005, published 2006)
# Target: T1, human Cot/Tpl2 kinase (Homo sapiens, UniProt P41279)
# T1 construct: human Cot/Tpl2 kinase construct encoding residues 30-398; 6His (N); made in house; host or cells: Sf9 insect cells, baculovirus system (BD Biosciences)
# Assay: Tpl2/Cot kinase assay: GST-MEK1 phosphorylation detected by ELISA (DELFIA Eu)
# Type: biochemical
# Conditions: Table 2; Tpl2/Cot kinase, GST-MEK1 substrate, 50 uM ATP
# Summary of the method: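 Substrate phosphorylation (GST-MEK1 Ser217/221) quantified by DELFIA europium ELISA, yielding IC50 values. Reaction: 1 h at 30° C, pH 7.2 MOPS buffer, 50 uM ATP, 35 nM GST-MEK1, 0.4 nM monomeric His-Tpl2 purified from Sf9 cells, compounds at 1% final DMSO; stopped with EDTA.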
# T1 sequence (P41279 30-398): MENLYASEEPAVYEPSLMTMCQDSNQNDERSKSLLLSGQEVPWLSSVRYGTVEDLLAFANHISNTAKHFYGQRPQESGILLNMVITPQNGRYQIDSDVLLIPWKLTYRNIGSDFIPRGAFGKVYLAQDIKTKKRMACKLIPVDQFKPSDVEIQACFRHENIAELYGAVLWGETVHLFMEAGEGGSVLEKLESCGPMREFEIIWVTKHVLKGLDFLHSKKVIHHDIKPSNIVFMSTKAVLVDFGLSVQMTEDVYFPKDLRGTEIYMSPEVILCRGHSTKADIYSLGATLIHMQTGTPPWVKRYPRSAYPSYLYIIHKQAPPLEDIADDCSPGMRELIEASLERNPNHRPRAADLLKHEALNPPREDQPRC
row,SMILES,IC50 [nM]
1,Cn1nc(C(C)(C)C)cc1Nc1c(C#N)cnc2ccc(N)cc12 [Example 425],> 40000
2,Cn1ccnc1CNc1cc(Cl)c2ncc(C#N)c(Nc3ccc(F)c(Cl)c3)c2c1 [Example 426],3.2
3,N#Cc1cnc2c(Cl)cc(NCc3cc[nH]n3)cc2c1Nc1ccc(F)c(Cl)c1 [Example 427],47
4,N#Cc1cnc2c(Br)cc(NCc3ccc(C(O)(C(F)(F)F)C(F)(F)F)cc3)cc2c1Nc1ccc(F)c(Cl)c1 [Example 428],> 40000
5,Cc1cc(CNc2cc(Cl)c3ncc(C#N)c(Nc4ccc(F)c(Cl)c4)c3c2)n[nH]1 [Example 429],100
6,Cc1cc(CNc2cc(Cl)c3ncc(C#N)c(Nc4ccc(F)c(Cl)c4)c3c2)n(C)n1 [Example 430],120
7,Cc1nc(CNc2cc(Cl)c3ncc(C#N)c(Nc4ccc(F)c(Cl)c4)c3c2)c(C)[nH]1 [Example 431],220
8,COCc1nc(CNc2cc(Cl)c3ncc(C#N)c(Nc4ccc(F)c(Cl)c4)c3c2)c[nH]1 [Example 432],260
9,N#Cc1cnc2c(Br)cc(NCc3ccnn3-c3ccccc3)cc2c1Nc1ccc(F)c(Cl)c1 [Example 433],250
10,N#Cc1cnc2c(Br)cc(NCc3cnn(-c4ccccc4)n3)cc2c1Nc1ccc(F)c(Cl)c1 [Example 434],> 40000
11,C[Si](C)(C)c1n[nH]nc1CNc1cc(Br)c2ncc(C#N)c(Nc3ccc(F)c(Cl)c3)c2c1 [Example 435],21
12,N#Cc1cnc2c(Br)cc(NCc3cncn3O)cc2c1Nc1ccc(F)c(Cl)c1 [Example 436],150
13,N#Cc1cnc2c(F)cc(NCc3cncn3O)cc2c1Nc1ccc(F)c(Cl)c1 [Example 437],200
14,N#Cc1cnc2c(Cl)cc(NCc3cncn3O)cc2c1Nc1ccc(F)c(Cl)c1 [Example 438],110
15,Cn1cncc1CNc1cc(Cl)c2ncc(C#N)c(Nc3ccc(F)c(Cl)c3)c2c1 [Example 439],220
16,N#Cc1cnc2c(Cl)cc(NCc3csnn3)cc2c1Nc1ccc(F)c(Cl)c1 [Example 440],49

row,SMILES,IC50 [nM]
1,Cc1[nH]c(C2CCCC2)nc1CNc1cc(Cl)c2ncc(C#N)c(Nc3ccc(F)c(Cl)c3)c2c1 [Example 441],1900
2,COC(=O)c1cnc(CNc2cc(Cl)c3ncc(C#N)c(Nc4ccc(F)c(Cl)c4)c3c2)n1C [Example 442],3400
3,CCCc1[nH]cnc1CNc1cc(Cl)c2ncc(C#N)c(Nc3ccc(F)c(Cl)c3)c2c1 [Example 443],25
4,Cc1[nH]c(-c2cccnc2)nc1CNc1cc(Cl)c2ncc(C#N)c(Nc3ccc(F)c(Cl)c3)c2c1 [Example 444],20600
5,COc1ccsc1CNc1cc(Cl)c2ncc(C#N)c(Nc3ccc(F)c(Cl)c3)c2c1 [Example 445],1100
6,Cn1nccc1CNc1cc(Br)c2ncc(C#N)c(Nc3ccc(F)c(Cl)c3)c2c1 [Example 446],98
7,N#Cc1cnc2c(Cl)cc(NCC(=O)c3ccccc3)cc2c1Nc1ccc(F)c(Cl)c1 [Example 447],870
8,N#Cc1cnc2c(Br)cc(NCc3n[nH]c4c3CCCC4)cc2c1Nc1ccc(F)c(Cl)c1 [Example 448],370
9,Cc1cc(CNc2cc(Br)c3ncc(C#N)c(Nc4ccc(F)c(Cl)c4)c3c2)nn1C [Example 449],5500
10,CC(C)(CNc1cc(Cl)c2ncc(C#N)c(Nc3ccc(F)c(Cl)c3)c2c1)N1CCOCC1 [Example 450],2400
11,N#Cc1cnc2c(I)cc(NCc3cnc[nH]3)cc2c1Nc1ccc(F)c(Cl)c1 [Example 452],51
12,Cn1nc(CNc2cc(Br)c3ncc(C#N)c(Nc4ccc(F)c(Cl)c4)c3c2)cc1-c1ccccc1 [Example 453],> 40000
13,N#Cc1cnc2c(Br)cc(NCc3cc(-c4ccccc4)[nH]n3)cc2c1Nc1ccc(F)c(Cl)c1 [Example 454],330
14,N#Cc1cnc2c(Br)cc(NCc3cc(-c4ccncc4)[nH]n3)cc2c1Nc1ccc(F)c(Cl)c1 [Example 455],13500
15,Cn1ncc(Br)c1CNc1cc(Br)c2ncc(C#N)c(Nc3ccc(F)c(Cl)c3)c2c1 [Example 456],1000
